Data as given in patent US6426204B1, “Method for detecting candida infection” (priority 1991, dated 2002).

Target: T1, C. tropicalis D-arabinitol dehydrogenase (Candida tropicalis, UniProt P50166)
T1 construct: endogenous in cells
Assay: Specificity of the fluorogenic D-arabinitol assay (reactivity of sugars and sugar alcohols)
Assay type: biochemical
Details: for Relative Reactivity: relative to D-arabinitol
Procedure: Human serum was diluted 1:3 (v/v) with 10 mmol/L citrate (pH 4.0), placed in a boiling water bath for 10 min, and then centrifuged at 10,000×g for 10 min to remove precipitated material. The supernatant was used as the sample. Reaction mixtures (vol.=0.4 mL) contained 0.3 mL of sample, 1 mmol/L NAD^+, 4 mmol/L Mg^2+, 0.35 IU C. tropicalis D-arabinitol dehydrogenase prepared as described in Example 1, and 0.1 mol/L Tris (pH 9.5). Incubation was for 15 min at room temperature to promote the D-arabinitol dehydrogenase-catalyzed oxidation of D-arabinitol with concomitant reduction of NAD^+ to NADH. This initial incubation stage was terminated by reducing the pH of the reaction mixture to 5.8 with 0.03 mL 1.0 mol/L citrate (pH 3.6). Resazurin (12.5 μmol/L) and diaphorase (0.15 IU) were then added, and the sample was reincubated at room temperature to promote the diaphorase-catalyzed utilization of NADH (which had accumulated in the initial incubation stage) for the reduction of resazurin to resorufin. Formation of the latter was monitored fluorometrically (Excitation=560 nm, Emission=580 nm) using a Perkin-Elmer fluorescence spectrophotometer, Model #650-40, and was complete within 30 sec.
A series of sugars and sugar alcohols normally present in human serum were assessed for reactivity in the fluorometric assay. Of the compounds examined, significant reactivity relative to that observed with an equimolar concentration of D-arabinitol was found only with xylitol (3.3%). D-glucose at concentrations as great as 5.0 mmol/L was not utilized as “a” substrate.
Assays were performed as described in Example 4 except the sample contained, instead of the boiled serum supernatant, the indicated compound in PBS/10 mmol/L citrate, pH 4.0 (1:3, v/v).

[1] = compound 5 μmol/L in PBS/10 mmol/L citrate pH 4.0
[2] = compound 500 μmol/L in PBS/10 mmol/L citrate pH 4.0

T1 sequence (P50166 whole entry): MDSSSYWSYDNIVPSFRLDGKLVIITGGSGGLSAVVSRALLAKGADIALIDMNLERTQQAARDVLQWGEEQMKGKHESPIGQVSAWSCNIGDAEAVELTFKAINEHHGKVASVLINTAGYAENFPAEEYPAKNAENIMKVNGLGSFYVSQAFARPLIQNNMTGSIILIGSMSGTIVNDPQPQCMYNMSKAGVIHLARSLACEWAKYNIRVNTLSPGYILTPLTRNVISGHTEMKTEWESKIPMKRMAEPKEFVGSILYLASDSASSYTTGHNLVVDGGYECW

| SMILES | Relative Reactivity [1] [%] | further results |
| --- | --- | --- |
| OC[C@@H](O)C(O)[C@H](O)CO [D-arabinitol] | 100 | – |
| O=C[C@@H](O)[C@@H](O)[C@H](O)[C@H](O)CO [D-mannose] | – | Relative Reactivity [2]: 0.3% |
| O=C[C@H](O)[C@@H](O)[C@@H](O)[C@H](O)CO [D-galactose] | – | Relative Reactivity [2]: 0.9% |
| OC[C@H](O)C(O)[C@@H](O)CO [L-arabinitol] | 0 | – |
| OC[C@@H](O)[C@@H](O)CO [erythritol] | 0 | – |
| O=C(CO)[C@@H](O)[C@H](O)[C@H](O)CO [D-fructose] | – | Relative Reactivity [2]: 0% |
| OC[C@@H](O)[C@H](O)[C@@H](O)CO [xylitol] | 3.3 | – |
| O=C[C@H](O)[C@@H](O)[C@H](O)[C@H](O)CO [D-glucose] | – | Relative Reactivity (compound 5000 μmol/L in PBS/10 mmol/L citrate pH 4.0): 0%; Utilization as substrate in the fluorometric assay (concentrations as great as 5.0 mmol/L): not utilized |
| OC[C@@H](O)[C@@H](O)[C@H](O)[C@@H](O)CO [D-sorbitol] | 0.1 | – |
| OC[C@@H](O)[C@H](O)CO [threitol] | 0.1 | – |
| OC[C@@H](O)[C@@H](O)[C@@H](O)CO [ribitol] | 0 | – |
| OC[C@@H](O)[C@@H](O)[C@H](O)[C@H](O)CO [D-mannitol] | 0 | – |
| OC[C@@H](O)[C@H](O)[C@H](O)[C@@H](O)CO [galactitol] | 0.6 | – |
